Data published in patent US20100158980A1, “DRUG DELIVERY DEVICES FOR DELIVERY OF THERAPEUTIC AGENTS” (priority 2008, published 2010).
≈ marks a conversion by molar mass, not a printed value. Where a name gives a salt, the structure may show the parent alone.

Assay: physchem
Text: The active agent may be any active agent suitable to treat the desired condition. […] Examples include, but are not limited to, acetazolamide, dorzolamide HCl, timolol maleate, and ethacrynic acid sodium salt.

Compound	solubility class	solubility (aqueous buffer) [µg/mL]	other results
CC(=O)Nc1nnc(S(N)(=O)=O)s1 [acetazolamide]		> 1000	
CCNC(=O)CCC/C=C\C[C@@H]1[C@@H](/C=C/[C@@H](O)CCc2ccccc2)[C@H](O)C[C@@H]1O [bimatoprost]	low solubility		
Brc1c(NC2=NCCN2)ccc2nccnc12 [brimonidine free base]			solubility: 360 µg/mL (≈ 1230 µM)
CCN[C@H]1C[C@H](C)S(=O)(=O)c2sc(S(N)(=O)=O)cc21 [dorzolamide HCl]	high solubility	> 1000	
C=C(CC)C(=O)c1ccc(OCC(=O)O)c(Cl)c1Cl [ethacrynic acid sodium salt]	high solubility	> 1000	
O=C(O)CCC/C=C\C[C@@H]1[C@@H](CC[C@@H](O)CCc2ccccc2)[C@H](O)C[C@@H]1O [latanoprost free acid]			solubility: 800 µg/mL (≈ 2050 µM)
CC(C)(C)NC[C@H](O)COc1nsnc1N1CCOCC1 [timolol maleate]	high solubility	> 1000	
brimonidine tartrate			solubility (in water at pH 7.7): 600 µg/mL

The next lines start with results.

solubility class	solubility (aqueous buffer) [µg/mL]	Compound	other results
moderate solubility		O=C(O)CCCCCC[C@@H]1[C@@H](CC[C@@H](O)c2cc3ccccc3s2)[C@H](O)C[C@@H]1O [AR-102 free acid, 7-((1R,2R,3R,5S)-2-((R)-3-(benzo[b]thiophen-2-yl)-3-hydroxypropyl)-3,5-dihydroxycyclopentyl)heptanoic acid]	
high solubility		C[C@@H]1C[C@H]2[C@@H]3CCC4=CC(=O)C=C[C@]4(C)[C@@]3(F)[C@@H](O)C[C@]2(C)[C@@]1(O)C(=O)COP(=O)(O)O [dexamethasone sodium phosphate]	
low solubility	< 300	C[C@@H]1C[C@H]2[C@@H]3CCC4=CC(=O)C=C[C@]4(C)[C@@]3(F)[C@@H](O)C[C@]2(C)[C@@]1(O)C(=O)CO [dexamethasone]	
	< 300	CC[C@H](C)C(=O)O[C@H]1C[C@@H](C)C=C2C=C[C@H](C)[C@H](CC[C@@H]3C[C@@H](O)CC(=O)O3)[C@H]21 [lovastatin]	
